# Measurements as given in patent US20020137929A1, “1 - (3-heterocyclylphenyl) isothiourea, -isourea, -guanidine and -amidine herbicidal agents” (Intellectual Property Department, BASF Aktiengesellschaft, priority 1998, published 2002).
# Assays:
# AMBEL (Ragweed, Common) [1] = assay: Postemergence herbicidal evaluation; format: in vivo, Ambrosia artemisifolia
# How it was run: (§1)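 Young plants, roughly two weeks from seeding, receive the active ingredient as a sprayed dispersion (acetone/water 50/50, 0.5% TWEEN 20) at 40 psi. Doses span about 0.0156 to 0.500 kg/ha. A visual score from 0 to 9 compares treated with control plants four to five weeks on.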
# ECHCG (Barnyardgrass) = assay: Preemergence herbicidal evaluation; format: in vivo, Echinochloa crus-galli; details: rated 4-5 weeks after treatment
# How it was run: (§2)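 Scores use a 0–9 visual scale covering stand, vigor, malformation, size and chlorosis relative to controls, rated four to five weeks after treatment. Before emergence, soil-planted seeds were sprayed with compound in aqueous acetone at roughly 0.0156–0.500 kg/ha and held in the greenhouse.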
# [2] = system: GLXMAW (Soybean, Williams); assay: Preemergence herbicidal evaluation; format: in vivo, Glycine max, (L.) Merr. cv Williams; details: rated 4-5 weeks after treatment
# How it was run: as §2
# CYPSE (Flatsedge) = assay: Preemergence weed control under flooded paddy conditions; format: in vivo, Cyperus serotinus; details: rated 3-4 weeks after treatment
# How it was run: (§3)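 Flooded-pot preemergence screen with silt loam and seeds in the upper 0.5 cm. Dose about 0.0313 to 0.500 kg/ha, delivered into flood water; visual 0-9 score after 3 to 4 weeks.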
# AMBEL (Ragweed, Common) [3] = assay: Preemergence herbicidal evaluation; format: in vivo, Ambrosia artemisifolia; details: rated 4-5 weeks after treatment
# How it was run: as §2
# [4] = system: SAGPY (Arrowhead (Pygmaea)); assay: Preemergence weed control under flooded paddy conditions; format: in vivo, Sagittaria pygmaea; details: rated 3-4 weeks after treatment
# How it was run: as §3
# GALAP (Galium) = assay: Preemergence herbicidal evaluation; format: in vivo, Galium aparine; details: rated 4-5 weeks after treatment
# How it was run: as §2
# ABUTH (Velvetleaf) = assay: Preemergence herbicidal evaluation; format: in vivo, Abutilon theophrasti; details: rated 4-5 weeks after treatment
# How it was run: as §2
# CASOB (Sicklepod) = assay: Preemergence herbicidal evaluation; format: in vivo, Cassia obtusifolia; details: rated 4-5 weeks after treatment
# How it was run: as §2
# [5] = system: IPOHE (Morningglory, Ivyleaf); assay: Postemergence herbicidal evaluation; format: in vivo, Ipomoea hederacea
# How it was run: as §1
# SETVI (Foxtail, Green) = assay: Preemergence herbicidal evaluation; format: in vivo, Setaria viridis; details: rated 4-5 weeks after treatment
# How it was run: as §2
# ZEAMX (Corn, Field) = assay: Postemergence herbicidal evaluation; format: in vivo, Zea mays
# How it was run: as §1
# [6] = system: GLXMAW (Soybean, Williams); assay: Postemergence herbicidal evaluation; format: in vivo, Glycine max, (L.) Merr. cv Williams
# How it was run: as §1
# [7] = system: ECHORC (Watergrass (Calif.)); assay: Postemergence weed control under flooded paddy conditions; format: in vivo, Echinochloa oryzoides; details: postemergence weeds, 3-4 weeks after treatment
# How it was run: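 Herbicidal effect is judged by eye on a 0–9 scale versus control, 3–4 weeks after dosing. Dosing is into flood water kept 1.5–3 cm over the soil, at about 0.0313–0.500 kg/ha in aqueous/acetone 50/50 v/v, on 3–5 cm weeds and 1.5–2.5-leaf rice seedlings.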
structure (smiles),measurement,setting,value
"Cn1c(C(F)(F)F)cc(=O)n(-c2cc(N=C3SCC(=O)N3CCC(=O)O)c(Cl)cc2F)c1=O [Compound 30, 2-{{2-Chloro-5-[3,6-dihydro-3-methyl-2,6-dioxo-4-(trifluoromethyl)-1(2H)-pyrimidinyl]-4-fluorophenyl}imino}-4-oxo-3-thiazolidinepropionic acid]",Postemergence herbicidal rating AMBEL,"AMBEL (Ragweed, Common) [1]; Rate 0.0158 kg/ha",0.0
same,Postemergence herbicidal rating AMBEL,"AMBEL (Ragweed, Common) [1]; Rate 0.0315 kg/ha",0.0
same,Postemergence herbicidal rating AMBEL,"AMBEL (Ragweed, Common) [1]; Rate 0.0630 kg/ha",1.0
same,Preemergence herbicidal rating ECHCG,ECHCG (Barnyardgrass); rate 0.0313 kg/ha,0.0
same,Preemergence herbicidal rating ECHCG,ECHCG (Barnyardgrass); rate 0.0625 kg/ha,0.0
same,Preemergence herbicidal rating ECHCG,ECHCG (Barnyardgrass); rate 0.1250 kg/ha,0.0
same,Preemergence herbicidal rating ECHCG,ECHCG (Barnyardgrass); rate 0.2500 kg/ha,0.0
same,Preemergence herbicidal rating GLXMAW,[2]; rate 0.0313 kg/ha,2.0
same,Preemergence herbicidal rating GLXMAW,[2]; rate 0.0625 kg/ha,3.0
same,Preemergence herbicidal rating GLXMAW,[2]; rate 0.1250 kg/ha,1.0
same,Preemergence herbicidal rating GLXMAW,[2]; rate 0.2500 kg/ha,4.0
same,Herbicidal rating CYPSE,CYPSE (Flatsedge); 0.1250 kg/ha,0.0
same,Herbicidal rating CYPSE,CYPSE (Flatsedge); 0.2500 kg/ha,0.0
same,Preemergence herbicidal rating AMBEL,"AMBEL (Ragweed, Common) [3]; rate 0.0313 kg/ha",0.0
same,Preemergence herbicidal rating AMBEL,"AMBEL (Ragweed, Common) [3]; rate 0.0625 kg/ha",1.0
same,Preemergence herbicidal rating AMBEL,"AMBEL (Ragweed, Common) [3]; rate 0.1250 kg/ha",5.0
same,Preemergence herbicidal rating AMBEL,"AMBEL (Ragweed, Common) [3]; rate 0.2500 kg/ha",6.0
same,Herbicidal rating SAGPY,[4]; 0.1250 kg/ha,0.0
same,Herbicidal rating SAGPY,[4]; 0.2500 kg/ha,2.0
same,Preemergence herbicidal rating GALAP,GALAP (Galium); rate 0.0313 kg/ha,0.0
same,Preemergence herbicidal rating GALAP,GALAP (Galium); rate 0.0625 kg/ha,0.0
same,Preemergence herbicidal rating GALAP,GALAP (Galium); rate 0.1250 kg/ha,1.0
same,Preemergence herbicidal rating GALAP,GALAP (Galium); rate 0.2500 kg/ha,9.0
same,Preemergence herbicidal rating ABUTH,ABUTH (Velvetleaf); rate 0.0313 kg/ha,9.0
same,Preemergence herbicidal rating ABUTH,ABUTH (Velvetleaf); rate 0.0625 kg/ha,9.0
same,Preemergence herbicidal rating ABUTH,ABUTH (Velvetleaf); rate 0.1250 kg/ha,9.0
same,Preemergence herbicidal rating ABUTH,ABUTH (Velvetleaf); rate 0.2500 kg/ha,9.0
same,Preemergence herbicidal rating CASOB,CASOB (Sicklepod); rate 0.0313 kg/ha,0.0
same,Preemergence herbicidal rating CASOB,CASOB (Sicklepod); rate 0.0625 kg/ha,0.0
same,Preemergence herbicidal rating CASOB,CASOB (Sicklepod); rate 0.1250 kg/ha,1.0
same,Preemergence herbicidal rating CASOB,CASOB (Sicklepod); rate 0.2500 kg/ha,1.0
same,Postemergence herbicidal rating IPOHE,[5]; Rate 0.0158 kg/ha,0.0
same,Postemergence herbicidal rating IPOHE,[5]; Rate 0.0315 kg/ha,0.0
same,Postemergence herbicidal rating IPOHE,[5]; Rate 0.0630 kg/ha,9.0
same,Preemergence herbicidal rating SETVI,"SETVI (Foxtail, Green); rate 0.0313 kg/ha",0.0
same,Preemergence herbicidal rating SETVI,"SETVI (Foxtail, Green); rate 0.0625 kg/ha",0.0
same,Preemergence herbicidal rating SETVI,"SETVI (Foxtail, Green); rate 0.1250 kg/ha",7.0
same,Preemergence herbicidal rating SETVI,"SETVI (Foxtail, Green); rate 0.2500 kg/ha",9.0
same,Postemergence herbicidal rating ZEAMX,"ZEAMX (Corn, Field); Rate 0.0158 kg/ha",3.0
same,Postemergence herbicidal rating ZEAMX,"ZEAMX (Corn, Field); Rate 0.0315 kg/ha",4.5
same,Postemergence herbicidal rating ZEAMX,"ZEAMX (Corn, Field); Rate 0.0630 kg/ha",6.0
same,Postemergence herbicidal rating GLXMAW,[6]; Rate 0.0158 kg/ha,6.5
same,Postemergence herbicidal rating GLXMAW,[6]; Rate 0.0315 kg/ha,6.5
same,Postemergence herbicidal rating GLXMAW,[6]; Rate 0.0630 kg/ha,6.5
same,Herbicidal rating ECHORC,[7]; rate 0.1250 kg/ha,0.0
same,Herbicidal rating ECHORC,[7]; rate 0.2500 kg/ha,0.0
